# Laboratory results as given in paper PMC6145176 (Bioorganic & medicinal chemistry, 2017).
# Read-outs that look alike come from different tables or passages of the source. Marks after values point to notes of the source that are not given here.
# How the values were obtained:
# [1] = tested on: MAGI-CCR5 cells; assay: MAGI-CCR5 parallel cytotoxicity testing; format: cell-based; details: for TC50 (NL4-3 row) / TC50 (A17 row): MAGI-CCR5 cells; for TC50 (NL4-3 row): printed in the NL4-3 line of Tables 7 and 10; for MAGI-CCR5 TC50: uninfected MAGI-CCR5 cells, 48 h, MTS, concentration that reduces cell viability by 50%; for TC50 (A17 row): printed in the A17 line of Table 10
# [2] = Parallel artificial membrane permeation assay; details: for Papp at 100 μM: PAMPA, pH 7.2
# [3] = tested on: HIV-1Ba-L; assay: MAGI-CCR5 antiviral assay; format: cell-based; details: for IC50: concentration that reduces viral replication by 50%; for IC90: read-out: MAGI-CCR5 IC90, concentration that reduces viral replication by 90%
# [4] = tested on: PBMCs; assay: PBMC cytotoxicity; format: cell-based, human; details: six days, MTS, concentration that reduces cell viability by 50%
# [5] = tested on: HIV wildtype (NL4-3); assay: MAGI-CCR5 antiviral assay, HIV wildtype; format: cell-based; details: HIV wildtype (NL4-3) in MAGI-CCR5 cells; for IC50: read-out: IC50, virus NL4-3; for IC90: read-out: IC90, virus NL4-3
# [6] = biological target: HIV-1 reverse transcriptase (RT) (Human immunodeficiency virus type 1 group M subtype B, UniProt P04585); assay: RT biochemical assay; details: 10 nM HIV-1 RT, 37 °C, 1 h
# [7] = Plasma stability in vitro assay; format: in vitro ADME; details: percent remaining after incubation for 60 min. at 37 °C, heparinized rat plasma
# [8] = Microsomal stability in vitro assay; format: in vitro ADME; details: percent remaining after incubation for 60 min. at 37 °C, rat liver microsomes
# [9] = Human immunodeficiency virus 1, MAGI-CCR5, 48 h, read-out: MAGI-CCR5 IC50, HIV-1Ba-L in MAGI-CCR5 cells, 48 h
# [10] = read-out: MAGI-CCR5 IC50, HIV-1Ba-L in MAGI-CCR5 cells, 48 h
# [11] = HIV-1Ba-L in MAGI-CCR5 cells, 48 h
compound,measurement,setting,value
"COc1ccc(C2NC(=O)NC(C)=C2c2nc(-c3ccc(C#N)cc3)cs2)cc1 (stereo not shown) [1m, 4-(2-(4-(4-Methoxyphenyl)-6-methyl-2-oxo-1,2,3,4-tetrahydropyrimidin-5-yl)thiazol-4-yl)benzonitrile]",TC50 (NL4-3 row),[1],5.5 ± 1.0 µM
same,Papp at 100 μM,[2],0.0776 ×10⁻⁶ cm/s
same,IC50,[3]; [9],< 0.15 µM
"4-(2-(6-Methyl-2-oxo-4-(quinolin-4-yl)-1,2,3,4-tetrahydropyrimidin-5-yl)thiazol-4-yl)benzonitrile [1ab]",PBMC TC50,[4],>100.00 µM
same,MAGI-CCR5 TC50,[1],>100.00 µM
same,IC50,[3]; [10],1.5 ± 0.3 µM
same,IC90,[3]; [11],12.7 ± 3.6 µM
COc1ccc(-c2csc(C3=C(C)NC(=O)NC3c3cccc(O)c3)n2)cc1 (stereo not shown) [1b],PBMC TC50,[4],91 ^e μM
"4-(2-(6-Methyl-2-oxo-4-(pyridin-2-yl)-1,2,3,4-tetrahydropyrimidin-5-yl)thiazol-4-yl)benzonitrile [1x]",PBMC TC50,[4],>100.00 µM
same,MAGI-CCR5 TC50,[1],>100.00 µM
same,IC50,[3]; [10],2 ± 0.5 µM
same,IC90,[3]; [11],> 100 µM
"Cc1ccnc2c1NC(=O)c1cccnc1N2C1CC1 [NVP, nevirapine, reference compound]",IC50,[5],0.07 ± 0.03 µM
same,IC90,[5],0.6 ± 0.07 µM
"CC1=C(c2nc(-c3ccc(C#N)cc3)cs2)C(c2ccc(O)cc2)NC(=O)N1 (stereo not shown) [1l, 4-(2-(4-(4-Hydroxyphenyl)-6-methyl-2-oxo-1,2,3,4-tetrahydropyrimidin-5-yl)thiazol-4-yl)benzonitrile]",TC50 (NL4-3 row),[1],46 ± 6.1 µM
same,Papp at 100 μM,[2],0.0151 ×10⁻⁶ cm/s
"4-(2-(6-Methyl-2-oxo-4-(pyridin-4-yl)-1,2,3,4-tetrahydropyrimidin-5-yl)thiazol-4-yl)benzonitrile [1z]",PBMC TC50,[4],>100.00 µM
same,MAGI-CCR5 TC50,[1],>100.00 µM
same,IC50,[3]; [10],1.4 ± 0.4 µM
same,IC90,[3]; [11],> 100 µM
CC1=C(c2nc(-c3ccc(C#N)cc3)cs2)[C@H](c2cccc(O)c2)NC(=O)N1 [(S)-1i],PBMC TC50,[4],>100 µM
same,RT biochemical IC50 (μM) ± SD,[6],Not active
"CC1=C(c2nc(-c3ccc(C#N)cc3)cs2)C(c2ccc(Oc3ccccc3)cc2)NC(=O)N1 (stereo not shown) [1p, 4-(2-(6-Methyl-2-oxo-4-(4-phenoxyphenyl)-1,2,3,4-tetrahydropyrimidin-5-yl)thiazol-4-yl)benzonitrile]",IC50,[3]; [9],< 0.15 µM
"CC1=C(c2nc(-c3ccc(C#N)cc3)cs2)C(c2ccc(Cl)nc2)NC(=O)N1 (stereo not shown) [1ai, 4-(2-(4-(6-Chloropyridin-3-yl)-6-methyl-2-oxo-1,2,3,4-tetrahydropyrimidin-5-yl)thiazol-4-yl)benzonitrile]",Papp at 100 μM,[2],0.0398 ×10⁻⁶ cm/s
"CC1=C(c2nc(-c3ccc(C#N)cc3)cs2)C(c2ccc(Br)nc2)NC(=O)N1 (stereo not shown) [1am, 4-(2-(4-(6-Bromopyridin-3-yl)-6-methyl-2-oxo-1,2,3,4-tetrahydropyrimidin-5-yl)thiazol-4-yl)benzonitrile]",TC50 (NL4-3 row),[1],>100 µM
same,Papp at 100 μM,[2],0.0151 ×10⁻⁶ cm/s
"CC1=C(c2nc(-c3ccc(C#N)cc3)cs2)C(c2cccc(O)c2)NC(=O)N1 (stereo not shown) [1i, 4-(2-(4-(3-Hydroxyphenyl)-6-methyl-2-oxo-1,2,3,4-tetrahydropyrimidin-5-yl)thiazol-4-yl)benzonitrile]",PBMC TC50,[4],84 ± 8.2 µM
same,Papp at 100 μM,[2],0.0145 ×10⁻⁶ cm/s
"CC1=C(c2nc(-c3ccc(C#N)cc3)cs2)C(c2ccc(OCc3ccccc3)cc2)NC(=O)N1 (stereo not shown) [1q, 4-(2-(4-(4-(Benzyloxy)phenyl)-6-methyl-2-oxo-1,2,3,4-tetrahydropyrimidin-5-yl)thiazol-4-yl)benzonitrile]",IC50,[3]; [9],< 0.15 µM
"4-(2-(6-Methyl-2-oxo-4-(pyridin-3-yl)-1,2,3,4-tetrahydropyrimidin-5-yl)thiazol-4-yl)benzonitrile [1y]",PBMC TC50,[4],>100.00 µM
same,MAGI-CCR5 TC50,[1],>100.00 µM
same,PAMPA (LogPe),"[2]; polar brain lipid membrane, predicts BBB permeability",−7.50 ± 0.10
same,IC50,[3]; [10],2.9 ± 0.1 µM
same,IC90,[3]; [11],> 100 µM
same,Plasma Stability (%),[7],89.42 ± 2.93%
same,Microsomal Stability (%),[8],75.55 ± 7.86%
"CC1=C(c2nc(-c3ccc(C#N)cc3)cs2)C(c2ccc(C(F)(F)F)nc2)NC(=O)N1 (stereo not shown) [1ar, 4-(2-(6-Methyl-2-oxo-4-(6-(trifluoromethyl)pyridin-3-yl)-1,2,3,4-tetrahydropyrimidin-5-yl)thiazol-4-yl)benzonitrile]",TC50 (NL4-3 row),[1],>100 µM
"COc1ccc(C2NC(=O)NC(C)=C2c2nc(-c3ccc(C#N)cc3)cs2)cn1 (stereo not shown) [1an, 4-(2-(4-(6-Methoxypyridin-3-yl)-6-methyl-2-oxo-1,2,3,4-tetrahydropyrimidin-5-yl)thiazol-4-yl)benzonitrile]",TC50 (NL4-3 row),[1],>100 µM
same,Papp at 100 μM,[2],0.0562 ×10⁻⁶ cm/s
"CC1=C(c2nc(-c3ccc(C#N)cc3)cs2)C(c2cc3ccccc3n2C)NC(=O)N1 (stereo not shown) [1ad, 4-(2-(6-Methyl-4-(1-methyl-1H-indol-2-yl)-2-oxo-1,2,3,4-tetrahydropyrimidin-5-yl)thiazol-4-yl)benzonitrile]",TC50 (A17 row),[1],>100 µM
same,TC50 (NL4-3 row),[1],>100 µM
same,Papp at 100 μM,[2],0.0891 ×10⁻⁶ cm/s
same,IC50,[3]; [9],0.74 µM
CC1=C(c2nc(-c3ccc(C#N)cc3)cs2)[C@@H](c2cccc(O)c2)NC(=O)N1 [(R)-1i],PBMC TC50,[4],>100 µM
"CC1=C(c2nc(-c3ccc(C#N)cc3)cs2)C(c2ccc(F)nc2)NC(=O)N1 (stereo not shown) [1ae, 4-(2-(4-(6-Fluoropyridin-3-yl)-6-methyl-2-oxo-1,2,3,4-tetrahydropyrimidin-5-yl)thiazol-4-yl)benzonitrile]",TC50 (NL4-3 row),[1],>100 µM
same,Papp at 100 μM,[2],0.575 ×10⁻⁶ cm/s
"4-(2-(6-Methyl-2-oxo-4-(quinolin-2-yl)-1,2,3,4-tetrahydropyrimidin-5-yl)thiazol-4-yl)benzonitrile [1aa]",PBMC TC50,[4],68.3 ± 22.1 µM
same,MAGI-CCR5 TC50,[1],>100.00 µM
same,IC50,[3]; [10],3.8 ± 1 µM
same,IC90,[3]; [11],98.3 ± 1.7 µM
"3-Methyl-4-(2-(6-methyl-4-(1-methyl-1H-indol-2-yl)-2-oxo-1,2,3,4-tetrahydropyrimidin-5-yl)thiazol-4-yl)benzonitrile [1at]",PBMC TC50,[4],>100 ^d μM
same,TC50 (A17 row),[1],>100 µM
same,TC50 (NL4-3 row),[1],>100 µM
same,MAGI-CCR5 TC50,[1],>100 µM
same,IC50,[3]; [10],0.39 ± 0.05 µM
same,IC90,[3]; [11],1.9 ± 0.3 µM
same,IC50,[5],0.39 ± 0.05 µM
same,IC90,[5],4.8 ± 0.6 µM
